Experimental data reported in patent publication US10800755B2, “2,6-disubstituted pyridine derivative” (Sumitomo Dainippon Pharma Co., Ltd., priority 2017, dated 2020).
Where two headings read alike, the source gives them in different places.

Key:
[1] = target: T1, human 5-HT1A receptor (Homo sapiens (Human), UniProt P08908); assay: Test 2: binding activity to human 5-HT1A receptor ([3H] 8-OH-DPAT, CHO cell membrane); conditions: [3H] 8-OH-DPAT; read-out: 5-HT1A binding affinity (Ki value)
Procedure: (§1) Test 2: Evaluation of Binding Activity to Human 5-HT1A Receptor, Human D4 Receptor, and Human D2 Receptor
(§2) CHO cell membrane fraction in which human 5-HT1A receptor, human D4 receptor, and human D2 receptor were expressed was purchased from PerkinElmer Co., Ltd. In the evaluation test of binding, the test compound dissolved in DMSO, each receptor membrane preparation diluted with buffer solution, and [3H] […] The nonspecific binding to each receptor was evaluated by a competition binding experiment in the presence of 10 μmol/L 8-OH-DPAT, 10 μmol/L dopamine, or 10 μmol/L spiperone, respectively.

[2] = target: T1, human 5-HT1A receptor; assay: Test 1: agonistic activity for human 5-HT1A receptor (aequorin/Gα16 luminescence in CHO-K1 cell); type: cell-based; conditions: for Emax: CHO-K1, 100% = 10 μmol/L endogenous ligand; for EC50: CHO-K1 cell, aequorin luminescence
Procedure: (§3) Test 1: Evaluation of Agonistic Activity for Human 5-HT1A Receptor and Human D4 Receptor
(§4) Aequorin, Gα16 proteins, and each receptor were transiently expressed in CHO-K1 cell (Chinese hamster ovary), and seeded to 384-well plate. The plate was incubated in a CO2 incubator at 37° C. for 24 hours. Each example compound dissolved in DMSO was added thereto, and the change of luminescence amount was measured with Hamamatsu FDSS/μCELL System (Hamamatsu Photonics).

[3] = target: human D2 receptor (Homo sapiens (Human), UniProt P14416); assay: Test 2: binding activity to human D2 receptor ([3H] spiperone, CHO cell membrane); conditions: [3H] spiperone; read-out: D2 binding affinity (Ki value)
Procedure: as §1, §2

[4] = test system: Wistar male rat; assay: Test 9: microdialysis test (release amount of intracerebral monoamine, orbitofrontal cortex); type: in vivo; conditions: combination administration with sertraline or single administration
Procedure: Test 9: Microdialysis Test
The effect of the present compound for the release amount of intracerebral monoamine was evaluated in a manner mentioned below.
8-Week-old Wistar male rat was fixed on a brain stereotaxic apparatus under anesthesia. The scalp was incised, the subcutaneous tissue was removed, the position of the bregma was measured, and the installation position of a guide cannula was calculated (the position of the orbitofrontal cortex which defined according to the brain stereotaxic coordinates of Paxinos & Watson (2.0 mm right, 4.2 mm anterior from bregma)). The skull was drilled with a dental drill at the installation position of the guide cannula, and an anchor screw was set about 1 cm posterior to the hole. The guide cannula was set and fixed with a dental cement, and then the scalp was sutured. The animal was released from the brain stereotaxic apparatus, and was moved back to the breeding cage. In the event of the test, the rat was put in an acrylic observable cage, and a dialysis probe was inserted along the guide cannula to connect to a free-moving tube. With an infusion pump, Ringer solution was perfused at 2 μL/min, and the dialysis solution was recovered at 20-minute intervals. […] The recovered dialysis solutions were analyzed with a HPLC-ECD system to determine the contents of norepinephrine (NE), dopamine (DA), and serotonin (5-HT).

[5] = Test 4-1: predictive test of human half-life (monkey distribution volume, serum unbound fraction, Test 3-1 stability); conditions: in vivo, predicted using Test 3-1 metabolic stability
Procedure: Test 4-1: Predictive Test of Human Half-Life
(§5) 0.01 mol/L of the present compound in aqueous hydrochloric acid solution was parenterally administered to cynomolgus monkey. 5 minutes, 15 minutes, 30 minutes, 1 hour, 2 hours, 4 hours, 6 hours, and 24 hours after the administration, the blood was collected. The plasma was obtained from the collected blood, the drug concentration in the plasma was measured with a LC-MS, and the monkey distribution volume was calculated from the transition of the concentrations. The unbound fraction rate of the present compound in serum of human and monkey was measured by equilibrium dialysis method.
Using the monkey distribution volume, the unbound fraction rate in serum of human and monkey, and the result of the metabolic stability of human liver microsome which was obtained in Test 3-1, the half-life in human was calculated according to the formula below. “Human distribution volume”=“monkey distribution volume”×“unbound fraction rate in serum of human”/“unbound fraction rate in serum of monkey” “Human hepatic clearance”=(“human hepatic blood flow”×“unbound fraction rate in serum of human”×56.7×“metabolic stability of human liver microsome”)/(“human hepatic blood flow”+“unbound fraction rate in serum of human”×56.7×“metabolic stability of human liver microsome”) “Half-life in human”=0.693×“human distribution volume”/“human hepatic clearance”

[6] = Test 3-2: metabolic stability test of human liver microsome (0.5 or 1.0 mg/mL); type: in vitro ADME; conditions: test compound 0.1 μmol/L, 37° C., 30 minutes
Procedure: Test 3-2: Metabolic Stability Test of Human Liver Microsome
(§6) In order to evaluate the metabolic stability of human liver microsomes more precisely, the stability of the present compounds for human liver microsome metabolism was evaluated with a suitable concentration of human liver microsome, as mentioned below. The used human liver microsome was obtained from Xenontech. Human liver microsome, NADPH, and each test compound were mixed in 25 mmol/L phosphate buffer solution (pH 7.4) to adjust each concentration as shown below, and the mixture was incubated at 37° C. for 30 minutes. • human liver microsome: 0.5 or 1.0 mg/mL • NAPDH: 3.2 mmol/L • test compound: 0.1 μmol/L
(§7) The residual ratio of the test compound in each sample after the incubation for 30 minutes was measured with a LC-MS, and the metabolic stability of human liver microsome was calculated about each test compound with the following formula. Metabolic stability of human liver microsome (mL/min/mg protein)=−LN (residual ratio)/“reaction time”/“concentration of human liver microsome”

[7] = Test 4-2: predictive test of human half-life (monkey distribution volume, serum unbound fraction, Test 3-2 stability); conditions: in vivo, predicted using Test 3-2 metabolic stability
Procedure: Test 4-2: Predictive Test of Human Half-Life
as §5
Using the monkey distribution volume, the unbound fraction rate in serum of human and monkey, and the result of the metabolic stability of human liver microsome which was obtained in Test 3-2, the half-life in human was calculated according to the formula below. “Human distribution volume”=“monkey distribution volume”×“unbound fraction rate in serum of human”/“unbound fraction rate in serum of monkey” “Human hepatic clearance”=(“human hepatic blood flow”×“unbound fraction rate in serum of human”×56.7×“metabolic stability of human liver microsome”)/(“human hepatic blood flow”+“unbound fraction rate in serum of human”×56.7×“metabolic stability of human liver microsome”) “Half-life in human”=0.693×“human distribution volume”/“human hepatic clearance”

[8] = target: T2, human D4 receptor (Homo sapiens (Human), UniProt P21917); assay: Test 2: binding activity to human D4 receptor ([3H] dopamine, CHO cell membrane)
Procedure: as §1, §2

[9] = target: T2, human D4 receptor; assay: Test 1: agonistic activity for human D4 receptor (aequorin/Gα16 luminescence in CHO-K1 cell); type: cell-based; conditions: for Emax: CHO-K1, 100% = 10 μmol/L endogenous ligand; for EC50: CHO-K1 cell, aequorin luminescence
Procedure: as §3, §4

[10] = Test 3-1: metabolic stability test of human liver microsome (0.1 mg/mL); type: in vitro ADME; conditions: test compound 0.1 μmol/L, 37° C., 30 minutes
Procedure: Test 3-1: Metabolic Stability Test of Human Liver Microsome
as §6, with “The” for “In order to evaluate the metabolic stability of human liver microsomes more precisely, the”, “evaluated” for “evaluated with a suitable concentration of human liver microsome,”, “0.1” for “0.5 or 1.0”
as §7

[11] = target: hERG channel (Homo sapiens (Human), UniProt Q12809); assay: Test 5-1: activity for inhibiting hERG channel (whole-cell patch clamp, hERG-CHO cell, Qpatch); type: cell-based; conditions: read-out: hERG inhibition IC50
Procedure: Test 5-1: Evaluation of Activity for Inhibiting hERG Channel
The activity of the present compound for inhibiting hERG channel was measured by whole-cell patch clamp method with auto patch clamp system, using CHO cell wherein hERG channel involved in human rapidly activating delayed rectifier potassium current (IKr) was forcibly expressed.
hERG-CHO cell purchased from ChanTest was incubated at 37° C. in a CO2 incubator, and the cell was exfoliated from the flask with trypsin to prepare a cell suspension, shortly before the hERG current measurement.
Extracellular fluid: 2 mmol/L CaCl2, 1 mmol/L MgCl2, 10 mmol/L HEPES, 4 mmol/L KCl, 145 mmol/L NaCl, 10 mmol/L glucose
Intracellular fluid: 5.4 mmol/L CaCl2, 1.8 mmol/L MgCl2, 10 mmol/L HEPES, 31 mmol/L KOH, 10 mmol/L EGTA, 120 mmol/L KCl, 4 mmol/L Na2-ATP
Test compound solution: The test compound was dissolved in DMSO by adjusting the concentration to 2 mmol/L or 20 mmol/L to prepare each test compound solution. […] (Measurement of Current Value and Data Analysis)
The cell suspension, the extracellular fluid, the intracellular fluid, and the measurement plate were set in an auto patch clamp system, and the hERG current was measured by whole-cell patch clamp method. […] Each pulse interval was 15 seconds. The data analysis was carried out with Qpatch Assay Software (Biolin Scientific). The test was carried out applying increscently 4 concentrations of each test compound, and the average of the peak tail currents that were obtained by the last 3 stimulations in each applied concentration was determined to be the evaluated data. By using the current inhibition rate for the pre-applied current at each concentration of each test compound, IC50 value was calculated by Hill equation with the software.

[12] = test system: SD male rat; assay: Test 6: contextual fear conditioning test; type: in vivo; conditions: 10 mg/kg administration
Procedure: Test 6: Contextual Fear Conditioning Test
The antianxiety of the present compounds was evaluated in a manner mentioned below.
The evaluation of an 8-week-old SD male rat with a fear conditioning test system (O'HARA & CO., LTD.) was carried out in 2-day test schedule. On the 1st day of the test, by giving 0.5 mA of electric shock to the rat as unconditioned stimulus 5 times for 6 minutes, the rat was made to learn the relationship the context (the illuminance in the cage: 200 lx) which was given as conditioned stimulus, and phobic stimulus. On the 2nd day, the present compound was subcutaneously administered with saline solution to the rat, or orally administered with methylcellulose suspension to the rat. 0.5 or 1 hour after the administration, the rat was made to softly enter the cage under the condition in which the unconditioned stimulus was not given in the context. The time of cataleptic freezing reaction that the rat took for 5-minute freely-moving period and its ratio were measured. The ratios of cataleptic freezing reaction between the solvent-administration group and the present compound-administration group were compared to be statistically processed.

[13] = [3H] dopamine, read-out: D4 binding affinity (Ki value)

T2 sequence (P21917 whole entry): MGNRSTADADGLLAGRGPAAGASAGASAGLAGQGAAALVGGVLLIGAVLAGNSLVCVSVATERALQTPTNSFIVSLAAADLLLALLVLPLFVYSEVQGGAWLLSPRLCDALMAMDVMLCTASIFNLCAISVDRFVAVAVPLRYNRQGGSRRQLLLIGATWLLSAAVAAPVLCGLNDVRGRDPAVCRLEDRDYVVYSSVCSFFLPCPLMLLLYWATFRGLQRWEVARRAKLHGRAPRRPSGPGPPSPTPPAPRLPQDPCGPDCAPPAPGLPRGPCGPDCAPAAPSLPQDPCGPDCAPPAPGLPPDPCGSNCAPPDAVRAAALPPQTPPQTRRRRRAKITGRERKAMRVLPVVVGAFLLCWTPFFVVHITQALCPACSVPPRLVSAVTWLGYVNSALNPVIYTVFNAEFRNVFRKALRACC
Chain of human D2 receptor (P14416 whole entry): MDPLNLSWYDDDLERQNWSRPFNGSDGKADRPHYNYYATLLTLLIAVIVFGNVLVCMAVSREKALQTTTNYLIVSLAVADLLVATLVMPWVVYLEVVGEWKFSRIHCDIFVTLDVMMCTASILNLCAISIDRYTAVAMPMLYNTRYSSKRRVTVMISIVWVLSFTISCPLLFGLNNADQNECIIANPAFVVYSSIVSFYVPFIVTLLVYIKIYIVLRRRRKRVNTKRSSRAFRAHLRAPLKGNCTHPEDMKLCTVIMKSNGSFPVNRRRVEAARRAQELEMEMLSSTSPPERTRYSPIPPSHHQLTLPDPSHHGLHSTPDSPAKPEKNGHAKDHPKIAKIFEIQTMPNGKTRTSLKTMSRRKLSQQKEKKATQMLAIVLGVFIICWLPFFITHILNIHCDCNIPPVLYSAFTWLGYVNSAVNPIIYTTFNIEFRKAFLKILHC
T1 sequence (P08908 whole entry): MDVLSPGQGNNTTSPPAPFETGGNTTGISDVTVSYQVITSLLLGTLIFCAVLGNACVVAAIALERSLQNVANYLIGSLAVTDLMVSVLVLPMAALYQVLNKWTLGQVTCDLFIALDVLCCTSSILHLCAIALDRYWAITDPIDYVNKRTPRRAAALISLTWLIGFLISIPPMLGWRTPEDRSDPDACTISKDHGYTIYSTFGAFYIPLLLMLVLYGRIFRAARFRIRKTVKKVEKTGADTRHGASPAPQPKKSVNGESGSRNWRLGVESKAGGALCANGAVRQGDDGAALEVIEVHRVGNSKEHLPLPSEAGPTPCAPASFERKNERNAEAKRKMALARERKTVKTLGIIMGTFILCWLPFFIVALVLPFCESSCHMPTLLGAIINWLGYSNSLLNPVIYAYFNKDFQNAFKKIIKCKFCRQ
Chain of hERG channel (Q12809 whole entry): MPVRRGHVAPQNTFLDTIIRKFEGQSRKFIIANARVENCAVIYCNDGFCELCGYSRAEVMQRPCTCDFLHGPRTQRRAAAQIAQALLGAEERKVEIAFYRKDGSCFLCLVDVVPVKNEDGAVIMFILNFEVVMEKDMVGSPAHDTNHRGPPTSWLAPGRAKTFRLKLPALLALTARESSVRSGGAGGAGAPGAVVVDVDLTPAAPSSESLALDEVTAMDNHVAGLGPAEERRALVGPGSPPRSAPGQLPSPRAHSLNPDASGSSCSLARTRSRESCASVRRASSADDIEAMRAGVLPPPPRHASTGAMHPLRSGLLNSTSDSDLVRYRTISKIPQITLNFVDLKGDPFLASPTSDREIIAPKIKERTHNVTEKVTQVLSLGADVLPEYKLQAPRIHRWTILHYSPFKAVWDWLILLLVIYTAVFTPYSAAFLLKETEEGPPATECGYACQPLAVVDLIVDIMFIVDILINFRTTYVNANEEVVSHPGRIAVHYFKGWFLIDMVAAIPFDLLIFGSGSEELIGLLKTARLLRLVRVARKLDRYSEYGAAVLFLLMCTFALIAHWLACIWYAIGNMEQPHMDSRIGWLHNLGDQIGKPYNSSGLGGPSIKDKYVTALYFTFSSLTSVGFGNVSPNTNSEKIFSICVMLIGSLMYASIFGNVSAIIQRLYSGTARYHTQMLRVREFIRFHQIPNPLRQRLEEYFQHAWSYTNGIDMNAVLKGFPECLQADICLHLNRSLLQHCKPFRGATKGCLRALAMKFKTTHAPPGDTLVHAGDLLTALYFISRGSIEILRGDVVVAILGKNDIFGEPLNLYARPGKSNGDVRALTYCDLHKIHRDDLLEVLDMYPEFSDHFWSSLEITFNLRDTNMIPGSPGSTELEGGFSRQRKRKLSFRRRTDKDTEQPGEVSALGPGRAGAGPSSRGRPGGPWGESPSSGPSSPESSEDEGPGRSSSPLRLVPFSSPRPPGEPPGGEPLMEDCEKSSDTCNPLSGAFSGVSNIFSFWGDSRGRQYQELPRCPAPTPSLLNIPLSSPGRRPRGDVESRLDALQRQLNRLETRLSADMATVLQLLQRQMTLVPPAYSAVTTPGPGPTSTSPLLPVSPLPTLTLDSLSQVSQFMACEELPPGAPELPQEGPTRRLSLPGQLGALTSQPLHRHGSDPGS

| Ki [1] | Emax [2] | EC50 [2] | Ki [3] | Metabolic stability of human liver microsome [6] | half-life [7] | Emax [9] | EC50 [9] | Metabolic stability of human liver microsome [10] | Ki [8, 13] | SMILES | serotonin content [4] | half-life [5] | Ki [8] | IC50 [11] | decrease of the cataleptic freezing reaction for the solvent-administration group [12] |
| --- | --- | --- | --- | --- | --- | --- | --- | --- | --- | --- | --- | --- | --- | --- | --- |
| 1.1 nM | 84% | < 10 nM | 2440 nM | 0.016 mL/min/mg protein | 10 h | 53% | < 10 nM | 0.025 mL/min/mg protein | 8 nM | CC(C)(C)C(=O)NCCN1CCC(c2cccc(C(F)(F)F)n2)CC1 [Example 9, 2,2-dimethyl-N-(2-{4-[6-(trifluoromethyl)pyridin-2-yl]piperidin-1-yl}ethyl)propanamide] | – | – | – | 5900 nM | – |
| 1.4 nM | 71% | < 10 nM | > 10000 nM | 0.023 mL/min/mg protein | 59 h | 65% | 37.1 nM | 0.017 mL/min/mg protein | 111 nM | Cc1cccc(C2CCN(CCNC(=O)C3CCOCC3)CC2)n1 [Example 8, N-{2-[4-(6-Methylpyridin-2-yl)piperidin-1-yl]ethyl}-tetrahydro-2H-pyran-4-carboxamide] | – | 9.2 h | – | 44300 nM | 41.0% |

| SMILES | Ki [1] | Emax [2] | EC50 [2] | Ki [3] | Metabolic stability of human liver microsome [6] | half-life [7] | Emax [9] | EC50 [9] | Metabolic stability of human liver microsome [10] | Ki [8, 13] | serotonin content [4] | half-life [5] | Ki [8] | IC50 [11] | decrease of the cataleptic freezing reaction for the solvent-administration group [12] |
| --- | --- | --- | --- | --- | --- | --- | --- | --- | --- | --- | --- | --- | --- | --- | --- |
| O=C(NCCN1CCC(c2cccc(C(F)(F)F)n2)CC1)C1CCOCC1 [Example 11, N-(2-{4-[6-(Trifluoromethyl)pyridin-2-yl]piperidin-1-yl}ethyl)-tetrahydro-2H-pyran-4-carboxamide] | 2.1 nM | 92% | 82 nM | > 10000 nM | 0.0075 mL/min/mg protein | 17 h | 56% | 30.8 nM | – | – | did not decrease the serotonin content | 13 h | 44 nM | – | – |
